Assay results as given in patent publication US9308238B2, “Compositions and methods for modulating EMT and uses thereof” (Whitehead Institute for Biomedical Research, priority 2010, dated 2016).

Legend:
HMLE^24+ cells [1] = assay: Flow cytometry of CD44/CD24, HMLE^24+ cells after 14 day treatment; format: cell-based, human; settings: control 0.2%
Experimental: (§1) FIGS. 5A-5H. Concomitant stimulation of Wnt and TGF-beta pathways allows HMLE^24+ cells to enter into a mesenchymal and SC-like state. (FIG. 5A) RT-PCR: N-Cadherin, Zeb1 and Zeb2, L32 was loading control, n=3. Prior RNA isolation, HMLE^24+-shGFP or -shSFRP1 (stable knockdown of SFRP1, FIG. 12A) cells were treated for 3 days with daily doses of indicated factors: anti-DKK1 antibody (10 μg/ml), anti-E-Cadherin antibody (1 μg/ml), TGF-beta 1 (5 ng/ml), Wnt5a (250 ng/ml), (FIG. 5B) Brightfield microscopy: images of control, TGF-beta- and iEMT-cocktail treated HMLE^24+ cells after 14 days of treatment as indicated (see also FIG. 12D). (FIG. 5C) RT-PCR: Zeb1, Zeb2, E-Cadherin and N-Cadherin, L32 was loading control, n=3. After 14 day treatment, cells were expanded in absence of further stimulation for 4 passages. […] (FIG. 5G) Lung metastasis: cells expanded for 8 passages after cessation of treatment as described in (C) were transformed with RAS; 1.0×10^5 cells were injected into the mammary fat pads of mice; GFP-labeled metastases on the surface of the lungs were quantified; *control vs. all other groups, p<0.05, n=5 mice/group. […]
Fluorescent activated cell sorting (FACS) and flow cytometry. […] Samples were sorted on a BD FACSAria SORP and analyzed on a BD LSRII using BD FACSDiva Software (BD Biosciences).

HMLE^24+ cells [2] = assay: RT-PCR / immunoblot of EMT markers and EMT-TFs in HMLE^24+ cells; format: cell-based, human
Experimental: as §1
Immunoblots. Protein was extracted with RIPA lysis buffer and concentration determined by the Lowry assay (Biorad). […]

[3] = test system: RAS-transformed HMLE cells; assay: Lung metastasis of RAS-transformed treated HMLE cells from mammary fat pads; format: in vivo; settings: cells implanted into mammary fat pads of mice
Experimental: as §1
Animal studies. […] Lung surface metastases were counted using a fluorescent microscope within 3 hr of specimen isolation.

luminal MECs = assay: Migration assay, primary luminal cells after pre-treatment; format: cell-based, human; settings: 5-day treatment
Excerpt: FIGS. 7A-7G. Migratory and self-renewal properties in primary MECs: inhibition and induction. (FIG. 7A) Mammosphere Assay: microscopy images of mammospheres and quantification of mammosphere formation by purified basal, luminal and unsorted MEC populations. Primary spheres were allowed to form over a period of 7 days, dissociated and seeded for secondary sphere formation, n(mammosphere)/1000 cells, n=48, (FIG. 7B) Migration Assay: microscopy images of migrated cells in Boyden Chambers and quantification, n=6. (FIG. 7C) Mammosphere Assay: basal cells were seeded into assay after a 5 day pre-treatment with TGF-beta inhibitors A83-01 and […] (SB43, both inhibitors at 10 μM) as well as recombinant SFRP1 (1 μg/ml), n(mammospheres)/1000 cells, n=6. (FIG. 7D) Migration Assay: basal cells were seeded into migration assays treated after 5 day pre-treatment as described in (C), n=24. (FIG. 7E) Mammosphere Assay: luminal cells were seeded into the assay following a 5 day pre-treatment with TGF-beta 1 (5 ng/ml), Wnt5a (250 ng/ml), anti-E-Cadherin antibody (1 μg/ml) plus anti-DKK1 antibody (10 μg/ml), and a cocktail of all factors added together (iEMT-II), n(mammospheres)/1000 cells, n=24. (FIG. 7F) Migration Assay: luminal cells were seeded into Boyden Chambers following a 5 day pre-treatment as described in (E), n=6. […]

TGF-beta 1: recombinant TGF-beta 1 protein, used at 5 ng/ml
proportion of CD44high/CD24low-negative cells (HMLE^24+ cells [1]): 1.5% | induction of N-Cadherin, Zeb1 or Zeb2 (HMLE^24+ cells [2]; 3 days treatment): did not result in a significant induction | E-/N-Cadherin expression (HMLE^24+ cells [2]; 14 day treatment, then expanded without stimulation): marginal upregulation of N-Cadherin | lung metastatic foci of RAS-transformed treated cells [3]: only weakly metastatic | increase in motile cells (luminal MECs): 8 fold
